From patent publication US8715677B2, “Immunological uses of immunomodulatory compounds for vaccine and anti-infectious disease therapy” (Celgene Corporation, priority 2005, dated 2014) come the findings set out here.

Common to all, as to assay type: cell-based
One data set deals with regulatory T cells. The data set can be described thus: Treg suppression of anti-CD3 mAb activated CD4+CD25- cell proliferation. To be noted: for suppressive function of Treg on anti-CD3 mAb activated CD4+CD25- cells: pre-incubation of Treg with compound. The method, then:
An assay in which the ability of isolated Treg to suppress anti-CD3 mAb activated CD4+CD25− cells was performed.
Regulatory T cells were isolated by the Dynal T regulatory cell isolation kit, and treated for 24 hours with varying concentrations of an immunomodulatory compound (Actimid™ or lenalidomide) or DMSO. The cells were washed and incubated at a 1:2 ratio with CD25^−CD4^+ cells, which were also isolated by the Dynal T regulatory cell isolation kit. Results were expressed as the mean % change in proliferation compared to the cpms obtained from DMSO treated CD25^+ cells incubated with CD25^− cells.

Another data set relates to Raji cells. Description: Direct effects on NHL tumor cells, alone or with anti CD20 antibodies. The settings on record: for effect in combination with anti CD20 antibody B1: 10 μM / up to 10 μM. The method, then:
Direct effects of IMiDs on NHL tumor cells were tested by treating Raji cells with IMiDs alone, or in combination with anti CD20 antibodies B1 or rituxan. IMiD 1 alone caused up to 40% inhibition of proliferation at 10 μM in Raji cells, which corresponded to G1 arrest.

Data set [1] relates to γδ T cells. Description: Apoptosis of γδ T cells (annexin V PE / 7-AAD). The settings on record: with or without IPP; FIG. 6. The method, then:
Gamma delta T cells were treated with a single dose of 25 μM IPP and weekly with 150 U/ml of IL-2 for 4 weeks and 3 days. Cells were then either left untreated or treated with Actimid™, IPP or Actimid™ and IPP. Apoptosis was assessed by staining of cells with annexin V PE and 7-AAD at various time points and analysis using a FACSCalibur.
Gamma delta T cells were treated with a single dose of 25 μM IPP and weekly with 150 U/ml of IL-2 for 31 days. Cells were then either left untreated or treated with Actimid™, IPP, or Actimid™ and IPP in combination. Apoptosis was assessed by staining of cells with annexin V PE and 7-AAD at the stated time points and analysis using a FACSCalibur. Annexin V PE negative/7-AAD negative cells are designated live, annexin V PE positive/7-AAD negative early apoptotic, annexin V PE positive/7-AAD positive late apoptotic and annexin V PE negative/7-AAD positive dead.

Data set [2] deals with γδ T cells. The data set can be described thus: Cytokine production by γδ T cells. The method, then:
Purified γδ T cells were stimulated with IPP±IMiDs ([…]) or with the MM cell line RPMI-8226 (±IMiDs ([…])) in 24 well plates and were incubated 8-72 hours. Cell-free supernatants were collected and stored at −70° C. until assayed by ELISA. IFN-γ, TNF-α and IL-2 were measured by ELISA (BD pharmingen). For fresh δγ preps, PBMCs were stimulated with plate bound anti-CD3 (1.25 μg/ml) for 48 hours and the expression of TNF-α, IFNγ, IL-2 and IL-4 were measured by intracellular FACS on cells stained for γδ TCR.
The effects of Actimid™ on IFN-γ, TNF-α, and IL-4 were examined in freshly prepared γδ T cells and γδ T cell lines stimulated with IPP.

Data set [3] deals with γδ T cells. The data set can be described thus: IFN-γ production by γδ T cells in co-culture with tumor cells. The settings on record: co-culture with RPMI-8226 MM cells, with or without pamidronate; FIG. 8. The method, then:
Tumor cells pre-incubated with (FIG. 8B) or without (FIG. 8A) pamidronate were incubated with δγ T cells at different tumor (RPMI-8226 MM) to γδ T cells ratios as indicated in FIG. 8. Some of the cells were further treated by Actimid™. Intracellular IFN-gamma production was measured by flow cytometry.

The test system of a further data set is RPMI-8226 MM cell lines. The data set can be described thus: Cytotoxicity of γδ T cells, chromium release assay. The protocol: Gamma delta T cells were treated with a single dose of 25 μM IPP and weekly with 150 U/ml of IL-2 for 3 weeks and 1 day. RPMI-8226 target cells were incubated overnight with 50 μM pamidronate then treated with 3MBq 51Cr. Target, and effector cells were incubated at different ratios and chromium release was assayed after 4 hours. To determine the effects of Actimid™, the compound was either included in the 22 day preincubation before the assay and in the chromium release step, or was included during the chromium release assay.
Gamma delta cells were treated with a single dose of 25 μM IPP and weekly with 150 U/ml of IL-2 for 22 days. RPMI-8226 target cells were incubated overnight with 50 μM pamidronate, then treated with 3 MBq 51 Cr. Target and effector cells were incubated at various ratios with fresh Actimid™ and chromium release assayed after 4 hours. Actimid™ was also added to some wells for the 22 day pretreatment with IL-2 and IPP (FIG. 9A) or just for the 4 hr chromium release assay (FIG. 9B).

Data set [4] relates to Rituximab-resistant cell line 2R. The data set can be described thus: Rituximab-mediated ADCC by primed PBMC, 51Cr release, 2R cells. The settings on record: E:T 40:1. The method, then:
(§1) Rituximab-resistant cell lines (RRCL) were generated by chronic exposure of Raji cells to escalating doses of rituximab alone (2R) or along with human complement (4RH). […] To study the effects of lenalidomide-priming of PBMC's against RRCL, peripheral blood mononuclear cells from healthy donors were cultured with either DMSO or lenalidomide (at final concentrations of 10 or 20 μg/ml), with or without IL-2 (20 IU/ml), over a 5-day period at 37° C., 5% CO2. Parentral Raji, and RRCL (2R and 4RH) were labeled with ^51Cr and exposed to either rituximab or trastuzumab (Isotype control at 20 μg/ml) in the presence of an IMiD or control stimulated-PBMCs (Effector:Target ratio of 40:1). ^51Cr release was measured and the percentage of lysis was calculated. Statistical differences were analyzed by chi-square test.

The subject of data set [5] is Rituximab-resistant cell line 4RH. Description: Rituximab-mediated ADCC by primed PBMC, 51Cr release, 4RH cells. The protocol:
as §1

Another data set has as its system Gab2. The data set can be described thus: Gab2 phosphorylation in anti-CD3/CD28 stimulated Jurkat T cells. To be noted: at about 1 μM, dose-dependent. The source says:
The Gab proteins, including Gab1, Gab2 and Gab3 comprise a growing family of phospho-tyrosine regulated scaffolding molecules involved in RTK signal transduction. Phosphorylation of Gab1 in B cells is associated with P13-kinase activity and cell proliferation. While Gab1 is expressed in B cells, only Gab2 is expressed in T cells. Although Gab2 is tyrosine phosphorylated upon TCR activation by ZAP-70, it functions as a negative regulator of TCR signaling via a Shp-2 dependent mechanism. Overexpression of Gab2 in T cells results in the inhibition of IL-2 production (Yamasaki et al., J. Biol. Chem., 2001). The effect of lenalidomide on Gab2 phosphorylation and activation in anti-CD3/CD28 stimulated Jurkat T cells was examined. Lenalidomide inhibited Gab2 phosphorylation dose-dependently (with approximately 50% inhibition at about 1 μM) in a manner that correlated with T cell costimulation and enhancement of IL-2 production.

Another data set relates to Foxp3. The data set can be described thus: Foxp3 expression in CD4+CD25+ cells (intracellular staining). To be noted: CD4+CD25+ cells incubated 24 hours; FIG. 3. The protocol: CD4^+CD25^+ cells were incubated for 24 hours with varying concentrations of DMSO, Actimid™, lenalidomide, or thalidomide and then washed twice with RPMI medium. Cells were stained with CD152-PE, CD4-PERCP, and CD25-APC. Intracellular Foxp3 staining and CD152 staining were carried out after permeabilizing the CD4^+ CD25^+ cells. Results were expressed as percentage of expression of Foxp3 in the CD4^+CD25^+ population or the CD4^+CD25^− population.

Setting [6] is: TCR γδ cells within freshly prepared PBMC population.

As for `Nc1cccc2c1C(=O)N(C1CCC(=O)NC1=O)C2=O` (centres unmarked) [Actimid, 4-(amino)-2-(2,6-dioxo(3-piperidyl))-isoindoline-1,3-dione], the “suppressive function of Treg on anti-CD3 mAb activated CD4+CD25- cells” value with regulatory T cells is “inhibits the suppressive function”. Further, the “effect in combination with rituxan” value with Raji cells (10 μM) is reported as “slight additive effect”. Moreover, in the data set on Raji cells, the “effect in combination with anti CD20 antibody B1” value is “small additive effect”. The “apoptosis in γδ T cells” value in the data set with γδ T cells [1] is listed as “protection against apotosis”. For the same compound, in the data set on γδ T cells [2] (setting [6]), the “production of IFN-γ” value is “enhanced” and the “production of TNF-α” value is “enhanced”. Moreover, in the data set on γδ T cells [2] (γδ T cells stimulated with IPP), the “production of IFN-γ” value is listed as “enhanced” and the “production of IL-4” value is given as “not”. Further, the “IFN-γ production by γδ T cells” value with γδ T cells [3] is given as “augmented”. Also, the “cytotoxicity of γδ T cells toward RPMI-8226 MM cell lines” value with RPMI-8226 MM cell lines (compound added during the 4 hr chromium release assay only, FIG. 9B) is “enhanced”. Further, the “cytotoxicity of γδ T cells toward RPMI-8226 MM cell lines” value in the data set on RPMI-8226 MM cell lines (compound added during the 22 day pretreatment, FIG. 9A) was “enhanced”.
For the compound `Nc1cccc2c1CN(C1CCC(=O)NC1=O)C2=O` (centres unmarked) [IMiD], the “rituximab-mediated ADCC, mean % lysis” value in data set [4] (PBMC exposed to IMiD for 5 days) is 26.9+/−1.18%; in data set [4] (PBMC exposed to IMiD+IL-2 for 5 days), 38.4+/−4.14%. Besides, the “mean % of lysis by ADCC” value was 26.5+/−1.83% in [5] (IMiD exposed PBMC) and 38.4+/−4.1% in [5] (combination IMiD/IL-2 exposed PBMC).
For the compound `Nc1cccc2c1CN(C1CCC(=O)NC1=O)C2=O` (centres unmarked) [lenalidomide, 3-(4-amino-1-oxo-1,3-dihydro-isoindol-2-yl)-piperidine-2,6-dione], the “suppressive function of Treg on anti-CD3 mAb activated CD4+CD25- cells” value with regulatory T cells was “inhibits the suppressive function”. In addition, the “effect in combination with anti CD20 antibody B1” value in the data set with Raji cells is “minimal”. For the same compound, the “inhibition of Gab2 phosphorylation” value in the data set on Gab2 was “approximately 50%”.
Take `O=C1CCC(N2C(=O)c3ccccc3C2=O)C(=O)N1` (centres unmarked) [thalidomide, reference compound]: in the data set with regulatory T cells (Treg treated 24 hours, washed, 1:2 ratio with CD25-CD4+ cells, FIG. 2), the “proliferation of CD25- cells in the presence of CD25+CD4+ cells, compared to DMSO treated CD4+CD25+ cells” value is listed as “little effect”. Moreover, the Foxp3 expression entry in the data set with Foxp3 was “little effects”.
